Measurements published in paper PMC7136483 (Frontiers in Pharmacology, 2020).
Where “and” joins values, the source holds several entries; their conditions need not be identical. Identical values can stand only once.

Assays:
[1] = parameters: method as in Ahmad et al., 2010b; conditions: fixed in model, ref Ahmad et al., 2010b, cited from earlier work
[2] = Joint parent-metabolite NLME PK model of tamoxifen and endoxifen (structural, statistical and age covariate estimates); format: in vivo, human
Source text: PK parameters for tamoxifen and endoxifen were simultaneously estimated.
The statistical model aimed to incorporate four levels of variability around the structural model. Thus, and due to the nature of the database, a nested hierarchy of random-effects components was set up comprising interstudy (ISV), interindividual (IIV), interoccasion (IOV), and residual unexplained variability (RUV) (see Supplementary Figure S1). While ISV and IIV characterize random deviations between different studies and patients, respectively, IOV describes the random variability within an individual patient across different occasions. The RUV captures the remaining variability across all observations.
IIV was evaluated on all structural PK parameters and implemented using exponential IIV models (Equation 1). Resulting individual PK parameters were assumed to arise from a log-normal distribution in which the ηik values are normally distributed with mean zero and variance estimate ωk2 .
While 27% of the patients had samples collected on one occasion (study day, i.e., one dosing interval = 1 day) only, 73% of patients in the PK database had samples collected on three to four occasions (i.e., 3–4 days) with rich sampling during one occasion (dosing interval) in studies 3–6.
For the RUV, a log-transformed both sides approach was applied (Equation 3).
Since tamoxifen and endoxifen PK were analyzed simultaneously, separate but correlated RUV terms were estimated.
A study effect was introduced as additional variability term on top of the random individual effect (IIV) (study hierarchically above individual level, see Supplementary Figure S1 and Equation 4) ([Laporte-Simitsidis et al., 2000]),
The covariate model was developed using a full covariate model approach ([Tunblad et al., 2008]; [Ravva et al., 2009]; [Gastonguay, 2011]): first, covariates were pre-selected based on specific criteria and introduced simultaneously into a full covariate model (for details see Supplementary Material 1, see section “Covariate Submodel Development”). Secondly, a covariate model refinement step was performed, selecting the most appropriate covariate functions for the preselected covariates, with respect to numerical and statistical evaluation criteria. Finally, the refined full covariate model was evaluated based on physiological plausibility of the estimated effect, statistical significance and clinical relevance criteria using advanced model evaluation techniques (Supplementary Material 1, see section “Advanced Model Evaluation Diagnostics”). To explore and quantify the reduction of unexplained variability upon introduction of covariate effects, the statistical model with the four levels of variability was exploited.
Furthermore, endoxifen PK parameter values (CL30/F = 5.1 L/h and VENDX/F = 400 L) were informed and used from a clinical study administering endoxifen only ([Ahmad et al., 2010b]).

[3] = Clinical PK database of six pooled tamoxifen studies: observed minimum steady-state concentrations
[4] = cited from earlier work
[5] = parameters: method as in earlier work; conditions: ref Johnson et al., 2004, Kisanga et al., Lim et al., 2005, Mürdter et al., 2011, Gjerde et al., 2012; cited from earlier work
[6] = tested on: CYP2D6; assay: NLME PK model covariate: CYP2D6 activity score on endoxifen formation; format: in vivo, human
Source text: To derive a patient’s CYP2D6 phenotype, the available genotype information, i.e., detected genetic polymorphisms (single nucleotide polymorphisms, SNPs, and copy number variants, CNVs), was translated via three steps: (1) From the reported nucleotide variation (wild-type ‘wt’ or altered nucleotide sequence ‘mut’) to a biallelic genotype, e.g., wt/mut: ^∗1/^∗41; (2) from the genotype to the activity score (AS), e.g., ^∗1/^∗41 → 1.5; (3) From the AS to the ‘traditional’ CYP2D6 phenotype category, e.g., 1.5 → normal metabolizer, gNM. […] Thus, each patient in the PK database was assigned a CYP2D6 activity score (seven AS categories from 0 to 3 in intervals of 0.5) and a respective CYP2D6 phenotype [four categories: poor (gPM, AS: 0), intermediate (gIM, AS: 0.5), normal (gNM, AS:1-2), and ultrarapid (gUM, […]) metabolizer; see Figure 1]. The prefix ‘g’ indicates the phenotype prediction from genotype.
(§1) Secondly, a covariate model refinement step was performed, selecting the most appropriate covariate functions for the preselected covariates, with respect to numerical and statistical evaluation criteria. Finally, the refined full covariate model was evaluated based on physiological plausibility of the estimated effect, statistical significance and clinical relevance criteria using advanced model evaluation techniques (Supplementary Material 1, see section “Advanced Model Evaluation Diagnostics”). To explore and quantify the reduction of unexplained variability upon introduction of covariate effects, the statistical model with the four levels of variability was exploited.
CYP2D6 activity score The CYP2D6 AS is a multichotomous covariate with seven ordered categories from 0 to 3 (step size of 0.5). For each patient in the PK database, an AS was derived from the reported CYP2D6 genotype.
The AS was introduced as ordered categorical covariate applying a fractional change model with four categories representing the ‘traditional’ CYP2D6 phenotype classes investigating two different grouping types for the intermediate (IM) and normal (NM) metaboliser group (depending on whether AS=1 is classified as IM or NM, see Figure 1 in main text), or with six AS categories only grouping AS 2.5 and 3 (Equation 8). To model the CYP2D6 activity scores, fiveseparate categorical covariate effects (for AS subgroups: 0, 0.5, 1, 1.5 and 2.5-3) were estimated while AS=2 was set as reference category (i.e. for a typical patient with AS=2: CL23/F = θRef). An indicator variable XAS,i was coded as 1 for a patient belonging into the respective AS category or 0 otherwise.

[7] = biological target: T1, CYP2D6 (Homo sapiens, UniProt P10635); assay: NLME PK model covariate: SSRI (paroxetine/fluoxetine) comedication (CYP2D6 inhibitors); format: in vivo; conditions: during strong CYP2D6-inhibitor comedication
T1 construct: endogenous in cells; host or cells: breast cancer patients (in vivo, clinical PK data)
T1 sequence (P10635 whole entry): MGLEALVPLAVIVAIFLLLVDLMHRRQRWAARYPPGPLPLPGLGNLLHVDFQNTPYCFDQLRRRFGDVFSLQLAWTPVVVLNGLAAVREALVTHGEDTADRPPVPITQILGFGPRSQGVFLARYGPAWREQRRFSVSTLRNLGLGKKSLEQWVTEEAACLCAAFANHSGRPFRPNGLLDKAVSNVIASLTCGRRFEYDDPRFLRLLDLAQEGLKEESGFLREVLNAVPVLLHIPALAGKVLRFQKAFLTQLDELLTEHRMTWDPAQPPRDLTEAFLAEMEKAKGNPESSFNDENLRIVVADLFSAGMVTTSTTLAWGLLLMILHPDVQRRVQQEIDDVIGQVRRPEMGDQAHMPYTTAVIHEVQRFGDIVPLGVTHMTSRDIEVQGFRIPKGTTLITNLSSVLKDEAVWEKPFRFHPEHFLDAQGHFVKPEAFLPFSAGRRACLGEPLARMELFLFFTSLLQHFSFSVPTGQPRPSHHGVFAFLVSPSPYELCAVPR
Description: as §1

[8] = interindividual variability, final model
[9] = interoccasion variability, final model
[10] = 20 mg dose group, across all studies, steady-state
[11] = fractional change of endoxifen formation vs AS 2

Q: What does the source list for `CC/C(=C(\c1ccc(O)cc1)c1ccc(OCCNC)cc1)c1ccccc1` [endoxifen, 4-hydroxy-N-desmethyl-tamoxifen]?
A: CL30/F ([1]; relative clearance of endoxifen): 5.1 L/h and 5.10 fixed L/h; VENDX/F ([1]; relative volume of distribution of endoxifen): 400 L and 400 fixed L; IIV CL23/F [2, 8]: 47.2 % CV; IIV CL23/F, variance estimate [2, 8]: 0.201; IOV CL23/F, variance estimate [2, 9]: 0.0289; IOV CL23/F ([2]; interoccasion variability, final model (SSRI effect included)): 17.1 % CV; CL23/F (Ref.) ([2]; relative formation of endoxifen, reference patient: CYP2D6 AS 2, 65 years, no rifampicin or SSRI): 0.493 L/h; IIV CL23/F before covariate inclusion ([2]; without CYP2D6 AS and SSRI covariates): 63.3 % CV; IOV CL23/F before considering SSRI effect ([2]; without covariate): 26.4 % CV; %CVgeom of Css,min [3, 10]: 84.4%; median Css,min [3, 10]: 10.7 ng/mL; range of Css,min [3, 10]: 0.70 to 45.5 ng/mL; overall risk of subtarget endoxifen concentrations, observed ([3]; observed population of PK database, CSS,min below 5.97 ng/mL): 28.9%; hazard ratio of the endoxifen exposure-response relationship ([4]; ref Madlensky et al. (2011)): 0.71; reduced risk of breast cancer recurrence related to endoxifen threshold concentration ([4]; ref Madlensky et al., 2011, Saladores et al., 2015): 26%; breast cancer patients not reaching proposed target endoxifen concentrations ([4]; tamoxifen standard dosing, ref Madlensky et al., 2011): ~20%; potency relative to parent tamoxifen [5]: 100 fold; fractional decrease from CL23/F reference value ([6]; AS 1): 32.3%; fractional decrease from CL23/F reference value ([6]; AS 1.5): 21.1%; CL23/F_AS: 0 [6, 11]: −0.722; CL23/F_AS: 0.5 [6, 11]: −0.510; CL23/F_AS: 1 [6, 11]: −0.323; CL23/F_AS: 1.5 [6, 11]: −0.211; CL23/F_AS: 2.5-3 [6, 11]: 0.533; reduced endoxifen formation efficiency CL23/F ([6]; intermediate metabolizers (AS: 0.5) vs AS 2): 51.0%; reduced endoxifen formation efficiency CL23/F ([6]; poor metabolizers (AS: 0) vs AS 2): 72.2%; increased CL23/F ([6]; ultrarapid metabolizer (AS ≥ 2.5) vs AS 2): 53.3%; change in endoxifen formation [7]: −65%

Q: For `CC/C(=C(\c1ccccc1)c1ccc(OCCN(C)C)cc1)c1ccccc1` [tamoxifen, reference compound], which ka ([2]; absorption rate constant, oral tamoxifen) is on record?
A: The ka was 1.78 h⁻¹.

Q: And the “IIV CL20/F, variance estimate” value [2, 8]?
A: Its value is 0.148.

Q: What about the “IOV CL20/F, variance estimate” value [2, 9] of the same molecule?
A: The value was 0.0222.

Q: And the “total ISV before covariate introduction” value ([2]; interstudy variability)?
A: The value was 31.2 % CV.

Q: And the “total ISV upon covariate introduction” value ([2]; interstudy variability)?
A: Its value is 16.1 % CV.

Q: What about the tlag ([2]; lag time) of the same molecule?
A: The tlag was 0.389 h.

Q: And the VTAM/F ([2]; relative central volume of distribution, reference patient)?
A: The VTAM/F was 1120 L.

Q: What about the “CL20/F (Ref.)” value ([2]; relative clearance of tamoxifen, reference patient: CYP2D6 AS 2, 65 years, no rifampicin or SSRI) of the same molecule?
A: The value was 5.77 L/h.

Q: What about the “IOV CL20/F before implementing rifampicin effect” value ([2]; without covariate) of the same molecule?
A: Its value is 24.9 % CV.

Q: And the “range of Css,min” value [3, 10]?
A: The value was 3.05 to 448 ng/mL.
